According to publication PMC6149949, “Synthesis and Evaluation of Thiochroman-4-One Derivatives as Potential Leishmanicidal Agents” (Molecules : A Journal of Synthetic Chemistry and Natural …, 2017):

Experiments:
[1] = test system: intracellular amastigotes of Leishmania panamensis (MHOM/CO/87/UA140-EGFP strain); experiment: In vitro antileishmanial activity on intracellular amastigotes (GFP, flow cytometry); format: cell-based; conditions: for EC50: Leishmania panamensis, U-937, 72 h, intracellular amastigotes of L. panamensis in U-937 cells, 72 h, mean ± SD; for SI (index of selectivity, IS = LC50/EC50): LC50 U-937 / EC50 L. panamensis amastigotes
Procedure: Antileishmanial activity of compounds was determined according to the ability of the compound to reduce the infection by L. panamensis parasites. For this, the antileishmanial activity was tested on intracellular amastigotes of L. panamensis transfected with the green fluorescent protein gene (MHOM/CO/87/UA140-EGFP strain). Briefly, U-937 human cells at a density of 3 × 10^5 cells/mL in RPMI 1640 and 0.1 μg/mL of PMA (phorbol-12-myristate-13-acetate) were dispensed on 24-wells microplate and then infected with stationary phase growing L. panamensis promastigotes in 15:1 parasites per cell ratio. Plates were incubated at 34 °C and 5% CO2 for 3 h and then cells were washed twice with phosphate buffer solution (PBS) to eliminate not internalized parasites. Fresh RPMI-1640 was added into each well (1 mL) and plates were incubated again. After 24 h of infection, the RPMI-1640 medium was replaced by fresh culture medium containing each compound at four serial dilutions (50, 12.5, 3.125 and 0.78 μg/mL) and plates were then incubated at 37 °C and 5% CO2 during 72 h, then, cells were removed from the bottom plate with 100 μL of EDTA/Trypsin (250 mg) solution. The cells were centrifuged at 1100 rpm during 10 min at 4 °C, the supernatant was discarded and cells were washed with 1 mL of cold PBS and centrifuged at 1100 rpm for 10 min at 4 °C. Cells were washed two times employing PBS, as previously, and after the last wash, the supernatant was discarded and cells were suspended in 500 μL of PBS.
Cells were analyzed by flow cytometry employing a flow cytometer (cytomics FC 500MPL, Beckman Coulter. Pasadena, CA, USA) reading at 488 nm (exciting) and 525 nm (emitting) over an argon laser and counting 10,000 events. Infected cells were determined according the events for green fluorescence (parasites). All determinations for each compound and standard drug were carried out by triplicate, in two experiments. Infected cells exposed to control drug (amphotericin B) were used as control for antileishmanial activity (positive control) while infected cells incubated in absence of any compound or drug were used as control for infection (negative control). Nonspecific fluorescence was corrected by subtracting fluorescence of unstained cells. Determinations were done by triplicate in at least two independent experiments.
Antileishmanial activity was determined according reduction of percentage of fluorescent parasites determined according to the median fluorescence intensity (MFI), obtained for each experimental condition by cytometry. The parasite values for each concentration of compound were calculated by Equation (3), where the % of parasites in the control well, corresponds to 100% of parasites. % parasites = (MFI exposed parasites/MFI unexposed parasites) × 100(3)
Then, inhibition percentage was calculated with Equation (4):% inhibition of parasites = 100 − (% parasites)(4)
Results of antileishmanial activities were expressed as the median effective concentrations (EC50) measured by Probit method.

in vitro = conditions: human
Procedure: Cytotoxicity of the compounds was evaluated over human monocytes (U-937 ATCC CRL-1593.2) in exponential growing phase and, adjusted at 1 × 10^5 cells/mL in RPMI-1640 enriched with 10% fetal bovine serum (FBS). One hundred microliters of cell suspension were dispensed in each well of a 96-wells microplate and then, 100 μL of each compound or standard drug (amphotericin B) at four serial dilution concentrations (200, 50, 12.5 and 3.125 μg/mL) were added dissolved in pbs with 0.5% DMSO. Cell exposed to compounds or standard drugs were incubated 72 h at 37 °C and 5% of CO2. Cytotoxic activity of each compound was determined according to the effect on the cell viability by the MTT microenzymatic method in which 3-(4,5-dimethylthiazol-2-yl)- 2,5-diphenyltetrazolium bromide is reduced to a purple product named formazan by mitochondrial enzyme succinate dehydrogenase. Thus, 10 μL/well of MTT solution (5 mg/mL) were added to each well of exposed and unexposed cells, and plates were incubated at 37 °C, 5% CO2 during 3 h. The reaction was stopped by adding 100 μL/well of isopropanol with 50% and 10% of SDS (sodium dodecyl sulfate). The concentration of formazan was determined spectrophotometrically at 570 nm (Varioskan Flash Multimode Reader, Thermo Scientific, Waltham, MA, USA) and intensity of color (absorbance) was registered as O.D. Cells exposed to control drug (amphotericin B) were used as control for toxicity (positive control) while cell incubated in absence of any compound or drug were used as control for viability (negative control). Non-specific absorbance was corrected by subtracting absorbance (O.D) of the blank. Determinations were done by triplicate in at least two independent experiments.
Cytotoxicity was determined according to viability and mortality percentages obtained for each experimental condition (synthetized compounds, amphotericin B and culture medium). Results were expressed as the mean lethal concentrations (LC50), concentration necessary to kill 50% of cells, calculated by the parametric method of linear regression that permits doses-response analysis (Probit analysis).
Initially, viability percentages were calculated by Equation (1), where the O.D of control well, corresponds to 100% of viability. % viability = (O.D exposed cells/O.D unexposed cells) × 100(1)
Then, the percentage of cell growth inhibition was calculated using Equation (2):% inhibition = 100 − (% Viability)(2)
The toxicity was defined according to LC50 values, using the follow scale: Toxic; LC50 < 100 μM; moderately toxic; LC50 > 100 μM and <200 μM and potentially nontoxic; LC50 > 200 μM.

| Compound | EC50 [1] [µM] | CC50 at 72 h (in vitro) [µM] | SI (index of selectivity, IS = LC50/EC50) [1] |
| --- | --- | --- | --- |
| C[C@@H]1[C@H](O)[C@@H](C)/C=C/C=C/C=C/C=C/C=C/C=C/C=C/[C@H](O[C@@H]2O[C@H](C)[C@@H](O)[C@H](N)[C@@H]2O)C[C@@H]2O[C@](O)(C[C@@H](O)C[C@@H](O)[C@H](O)CC[C@@H](O)C[C@@H](O)CC(=O)O[C@H]1C)C[C@H](O)[C@H]2C(=O)O [Amphotericin B, reference compound] | 0.32 | 39.6 ± 8.7 |  |
| CC1CC(=O)c2ccccc2S1 (centres unmarked) [Compound 1a, 2-Methylthiochroman-4-one] |  | 604 ± 86.4 | 1.36 |
| CC1CC(=O)c2cc(F)ccc2S1 (centres unmarked) [Compound 1b, 6-Fluoro-2-methylthiochroman-4-one] |  | 579 ± 59.1 | 1.37 |
| O=C1CCSc2ccc(F)cc21 [Compound 1c, 6-Fluorothiochroman-4-one] | > 110 | 705 | <6.42 |
| O=C1CCSc2c1ccc1c2C(=O)CCS1 [Compound 1d, 2,3,8,9-Tetrahydro-4H,10H-thiopyran[2,3-f]thiochromene-4,10-dione] | > 80 | 279 ± 36.4 | <3.49 |
| O=C1CC(C(=O)O)Sc2ccccc21 (centres unmarked) [Compound 1e, 4-Oxothiochroman-2-carboxylic acid] | > 96.1 | 143 ± 16.8 | <1.48 |
| O=C1CCSc2ccc([N+](=O)[O-])cc21 [Compound 1f, 6-Nitrothiochroman-4-one] | > 95.6 | > 200 |  |
| Nc1ccc2c(c1)C(=O)CCS2 [Compound 1g, 6-Aminothiochroman-4-one] | > 112 | 118 ± 10.5 | <1.100 |
| O=C1CC(c2ccccc2)Sc2ccccc21 (centres unmarked) [Compound 1h, 2-Phenylthiochroman-4-one] | 44.1 ± 0.9 | > 41.6 |  |
| O=C1CC(c2ccc(C(F)(F)F)cc2)Sc2ccccc21 (centres unmarked) [Compound 1i, 2-(4-(Trifluoromethyl)-phenyl)-thiochroman-4-one] | 61.4 ± 1.62 | > 649 | >10.56 |
| O=C1CC(c2ccc(C(F)(F)F)cc2)Sc2ccc(F)cc21 (centres unmarked) [Compound 1j, 6-Fluoro-2-(4-(trifluoromethyl)-phenyl)thiochroman-4-one] | 80.3 ± 12.1 | 129 ± 3.45 | 1.60 |
| O=C1CC(c2ccc(Cl)cc2)Sc2ccccc21 (centres unmarked) [Compound 1k, 2-(4-Chlorophenyl)-thiochroman-4-one] | > 72.8 | 64.4 ± 3.98 | <0.90 |
| O=C1CC(c2ccc(F)cc2)Sc2ccccc21 (centres unmarked) [Compound 1l, 2-(4-Fluorophenyl)-thiochroman-4-one] | 93.6 ± 11 | 72.9 ± 9.87 | 0.78 |
| O=C1CC(c2ccc([N+](=O)[O-])cc2)Sc2ccccc21 (centres unmarked) [Compound 1m, 2-(4-Nitrophenyl)-thiochroman-4-one] | > 70.1 | > 701 |  |
| O=c1ccsc2ccc([N+](=O)[O-])cc12 [Compound 2f, 6-Nitro-4H-thiochromen-4-one] | 36.8 ± 1.74 | > 965 | >26.26 |
| O=c1cc(-c2ccc(C(F)(F)F)cc2)sc2ccccc12 [Compound 2i, 2-(4-(Trifluoromethyl)-phenyl)-4H-thiochromen-4-one] | 161 ± 20.5 | 522 ± 314 | 3.24 |
| O=c1cc(-c2ccc(C(F)(F)F)cc2)sc2ccc(F)cc12 [Compound 2j, 6-Fluoro-2-(4-(trifluoromethyl)-phenyl)-4H-thiochromen-4-one] | 52.3 ± 8.92 | 51.4 ± 11.6 | 0.98 |
| O=c1cc(-c2ccc(Cl)cc2)sc2ccccc12 [Compound 2k, 2-(4-Chlorophenyl)-4H-thiochromen-4-one] | > 73.3 | > 733 |  |
| O=c1cc(-c2ccc(F)cc2)sc2ccccc12 [Compound 2l, 2-(4-Fluorophenyl)-4H-thiochromen-4-one] | > 78 | 503 ± 382 | <6.45 |
| O=c1cc(-c2ccc([N+](=O)[O-])cc2)sc2ccccc12 [Compound 2m, 2-(4-nitrophenyl)-4H-thiochromen-4-one] | > 70.6 | > 706 |  |
| CC1CC(=O)c2ccccc2S1(=O)=O (centres unmarked) [Compound 3a, 2-Methylthiochroman-4-one 1,1-dioxide] | > 95.2 | > 825 |  |
| CC1CC(=O)c2cc(F)ccc2S1(=O)=O (centres unmarked) [Compound 3b, 6-Fluoro-2-methylthiochroman-4-one 1,1-dioxide] | > 87.7 | > 876 |  |
| O=C1CCS(=O)(=O)c2ccc(F)cc21 [Compound 3c, 6-Fluorothiochroman-4-one 1,1-dioxide] | > 93.5 | > 934 |  |
| O=C1CC(c2ccccc2)S(=O)(=O)c2ccccc21 (centres unmarked) [Compound 3h, 2-Phenylthiochroman-4-one 1,1-dioxide] | 217 ± 34.9 | 529 ± 52.9 |  |
| O=C1CC(c2ccc(C(F)(F)F)cc2)S(=O)(=O)c2ccccc21 (centres unmarked) [Compound 3i, 2-(4-(Trifluoromethyl)-phenyl)-thiochroman-4-one 1,1-dioxide] | 84.8 ± 3.23 | 62.9 ± 10.3 | 0.74 |
| O=C1CC(c2ccc(C(F)(F)F)cc2)S(=O)(=O)c2ccc(F)cc21 (centres unmarked) [Compound 3j, 6-Fluoro-2-(4-(trifluoromethyl)-phenyl)-thiochroman-4-one 1,1-dioxide] | 79.1 ± 8.98 | > 558 | >7.06 |
| O=C1CC(c2ccc(Cl)cc2)S(=O)(=O)c2ccccc21 (centres unmarked) [Compound 3k, 2-(4-Chlorophenyl)-thiochroman-4-one 1,1-dioxide] | 137.1 ± 1.29 | > 652 | >4.76 |
| O=C1CC(c2ccc(F)cc2)S(=O)(=O)c2ccccc21 (centres unmarked) [Compound 3l, 2-(4-Fluorophenyl)thiochroman-4-one 1,1-dioxide] | > 68.9 | 689 |  |
| O=C1CC(c2ccc([N+](=O)[O-])cc2)S(=O)(=O)c2ccccc21 (centres unmarked) [Compound 3m, 2-(4-Nitrophenyl)-thiochroman-4-one 1,1-dioxide] | > 63 | > 630 |  |
| O=C1C=C(c2ccc(C(F)(F)F)cc2)S(=O)(=O)c2ccc(F)cc21 [Compound 4j, 6-Fluoro-2-(4-(trifluoromethyl)-phenyl)-4H-thiochromen-4-one 1,1-dioxide] |  | > 561 |  |
